Measured values published in patent EP4548971A1, “1,4-BENZOTHIAZEPINES AND RELATED COMPOUNDS WITH CYCLOPROPANOL GROUPS AS MULTI-TARGETED DRUGS” (Georg-August-Universität Göttingen Stiftung Öffentlichen …, priority 2023, dated 2025).

Target: T1, SERCA2a (Mus musculus, UniProt O55143)
T1 construct: host or cells: HL-1 cardiac cells
Assay: NADH-coupled ATPase assay on microsomal membrane vesicles from mouse heart ventricles (mouse SR)
Assay type: biochemical
Set-up: key to SERCA2a mouse SR effect class: +++: a strong effect, comparable to or greater than that of a known compounds at a given concentration (25 µM in RyR2 R-CEPIA1er assay, 10 µM in caffeine assay and on microsomal membrane vesicles); ++: moderate effect; +: observable effect; -: no effect
Conditions: for SERCA2a mouse SR effect class: 10 µM on microsomal membrane vesicles
Protocol: All animal procedures were performed in accordance with Directive 2010/63/EU of the European Parliament and the Council on the protection of animals used in research, as well as Animal Welfare Law of the Federal Republic of Germany (Tierschutzgesetz der Bundesrepublik Deutschland, TierSchG). […] All mice were housed with a 12 hours light/dark cycle with free access to food and water. Adult C57BL/6N mice of both genders were sedated with isoflurane in a sealed container and quickly euthanized by cervical dislocation. Heart ventricles were taken out instantly, washed with ice cold PBS plus complete, cut into smaller pieces and snap frozen in liquid nitrogen straight away.
Thawed on ice lysis buffer (10mM EDTA, 10mM HEPES, cOmplete, pH 7.4) was added and the ventricles were homogenized with a Qiagen cellruptor for 20 s. On ice an equal volume of restoration buffer (500 mM sucrose, 10 mM HEPES, cOmplete, pH7.2) was added and briefly mixed. The homogenate was centrifuged at 10000 × g for 20 min at 4° C. The supernatant was collected and centrifuged again for another hour (100000 × g at 4°C). Then the pellet was carefully resuspended in resuspension buffer (250 mM sucrose, 10 mM HEPES, cOmplete, pH 7.2) on ice by pipetting the solution up and down until fully dissolved. The obtained solution was diluted to a protein concentration of 5 µg/µl with the resuspension buffer and the aliquots were snap frozen in liquid nitrogen and then stored at -80 °C until usage.
To determine whether new compounds could increase the SERCA2a activity, HEK-293 microsomes (40 - 150 µg of total protein) or mouse ventricular microsomes (1 - 20 µg of total protein) were diluted in 100 µl of the assay buffer used for measurement of SERCA activity (described below) and incubated at room temperature for 5 minutes prior to the experiments. The measurements of SERCA2a activity were made at 28 °C by using a NADH -coupled ATPase assay. Briefly, the assay buffer contained 60 mM MOPS, 120 mM KCI, 6 mM MgCl2, 1 mM EGTA, 5 mM NaN3, 0.5 mM phosphoenolpyruvate and 1.5 mM CaCl2, pH 7.0. Before the reaction was started by the injection of […] ATP (resulting in 2 mM final concentration in the well), 5 units/mL of both lactate dehydrogenase and pyruvate kinase, 0.5 mM NADH, and 1 µM Ca^2+ ionophore A-23187 (Sigma, C-7522) were added to the diluted sample with or without the tested compound. The 1.5 mM Ca/EGTA buffer has a free Ca^2+ concentration of about 200 µM. The NADH fluorescence decrease was recorded each 2 s for 10 min course on a multiwell plate reader TECAN Spark 20M in 96-well glass bottom plates (MatTek Corporation; Cat. No. PBK96G-1.5-5-F). Fluorescence was evoked by 380 nm excitation wavelength and collected in a bottom-read mode at 425 nm. Exposure - 30 flashes, excitation bandwidth - 10 nm, emission bandwidth - 10 nm. ATP was injected at 30 s. […] The data were analyzed with computer software GraphPad Prism version 8.3.1 (GraphPad Software, Inc.). The difference in signal decrease with and without microsomes was taken as an indicator for the additional ATPase activity performed by SERCA2a. The obtained values for maximal SERCA2a activity were normalized for total protein concentration. Maximal SERCA2a activity values are reported as percentages of control (0.1% DMSO) values. Microsomal samples that were kept on ice until usage and set to 100%.
In an NADH assay, the change in NADH coenzyme fluorescence reflects the level of the consumption of ATP, which can be taken as an indicator of SERCA2 activity [G. B. Warren, P. A. Toon, N. J. Birdsall, A. G. Lee, J. C. Metcalfe, Reconstitution of a calcium pump using defined membrane components. Proc. Natl. Acad. Sci. U.S.A. 1974, 71, 622 - 626]. ATP hydrolysis by SERCA2 is required to pump calcium ions into the SER. A higher rate of ATP hydrolysis corresponds to enhanced SERCA2 ATPase activity that leads to a greater pumping of calcium ions into the SR. […]

T1 sequence (O55143 1-998 isoform O55143-2): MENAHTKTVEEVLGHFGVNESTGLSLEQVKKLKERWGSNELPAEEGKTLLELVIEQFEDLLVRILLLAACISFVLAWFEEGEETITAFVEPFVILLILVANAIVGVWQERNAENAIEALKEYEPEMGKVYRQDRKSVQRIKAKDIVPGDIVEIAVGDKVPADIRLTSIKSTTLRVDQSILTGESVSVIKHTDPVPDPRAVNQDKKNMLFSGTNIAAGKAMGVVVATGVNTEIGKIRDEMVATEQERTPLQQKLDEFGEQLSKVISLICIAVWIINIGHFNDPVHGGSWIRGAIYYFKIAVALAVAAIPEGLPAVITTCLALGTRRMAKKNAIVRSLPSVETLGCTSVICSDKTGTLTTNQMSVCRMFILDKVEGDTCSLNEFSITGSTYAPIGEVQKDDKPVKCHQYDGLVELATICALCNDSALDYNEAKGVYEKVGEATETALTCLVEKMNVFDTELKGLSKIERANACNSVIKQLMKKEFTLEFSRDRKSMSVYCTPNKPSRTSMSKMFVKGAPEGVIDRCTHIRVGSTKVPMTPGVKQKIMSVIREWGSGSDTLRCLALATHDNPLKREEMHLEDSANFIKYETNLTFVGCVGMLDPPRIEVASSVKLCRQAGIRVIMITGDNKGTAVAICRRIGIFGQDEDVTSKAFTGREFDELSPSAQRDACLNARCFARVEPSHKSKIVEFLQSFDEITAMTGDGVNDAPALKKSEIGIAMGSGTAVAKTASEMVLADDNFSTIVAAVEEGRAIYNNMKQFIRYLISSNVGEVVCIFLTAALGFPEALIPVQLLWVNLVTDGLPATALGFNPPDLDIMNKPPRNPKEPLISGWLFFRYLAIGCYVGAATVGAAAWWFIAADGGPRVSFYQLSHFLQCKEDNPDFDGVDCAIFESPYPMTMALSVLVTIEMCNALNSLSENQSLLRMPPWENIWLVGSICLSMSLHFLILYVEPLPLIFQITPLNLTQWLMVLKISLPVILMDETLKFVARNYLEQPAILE

SMILES | SERCA2a mouse SR effect class | effect on ATPase activity, in words (cardiac SER vesicles from mouse heart, 10 µM (3 µM for 14b), vs. 0.1 v/v% DMSO) | EC50 (ATPase activity, range after the semicolon is not explained) [nM]
COc1ccc2c(c1)CN(Cc1ccc(C(=O)O)cc1)CCS2 [ARM210, reference compound] | ++ |  | 
COc1ccc2c(c1)CN(CCCCNCCCCC1(O)CC1)CCS2 [Compound 13a, 1-(4-((4-(7-Methoxy-2,3-dihydrobenzo[1,4-f]-thiazepin-4(5H)-yl)butyl)amino)butyl)cyclopropan-1-ol] | + |  | 
COc1ccc(OCCCNCCCCC2(O)CC2)cc1 [Compound 13b, 1-(4-((3-(4-methoxyphenoxy)propyl)amino)butyl)cyclopropan-1-ol] | + |  | 
COc1ccc(SCCCNCCCCC2(O)CC2)cc1 [Compound 13c, 1-(4-((3-((4-Methoxyphenyl)thio)propyl)amino)butyl)cyclopropan-1-ol] | +++ |  | 
COc1ccc2c(c1)CN(CCCCC1(O)CC1)CCS2 [Compound 13d, 1-(4-(7-methoxy-2,3-dihydrobenzo[1,4-f]thiazepin-4(5H)-yl)butyl)cyclopropan-1-ol] | ++ | moderate | 
COc1ccc2c(c1)CN(CCCCN(CCCCC1(O)CC1)CCCCC1(O)CC1)CCS2 [Compound 14a, 1,1'-(((4-(7-Methoxy-2,3-dihydrobenzo[1,4-f]thiazepin-4(5H)-yl)butyl)azanediyl)bis(butane-4,1-diyl))bis(cyclopropan-1-ol)] | +++ |  | 383
COc1ccc(SCCCN(CCCCC2(O)CC2)CCCCC2(O)CC2)cc1 [Compound 14c, 1,1'-(((3-((4-Methoxyphenyl)thio)propyl)azanediyl)bis(butane-4,1-diyl))bis(cyclopropan-1-ol)] | + |  | 
